Measurements as given in PubChem BioAssay (NCI).
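Protocol summary: plate cells (96-well), add compound at 5 concentrations, incubate 48 h, interpolate endpoints linearly. TGI: concentration producing complete growth inhibition.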

What was measured:
Experiment in all cases: NCI anticancer screen, dose series, 48 h
DU-145 prostate = system: DU-145 prostate
HL-60(TB) leukemia = system: HL-60(TB) leukemia
MDA-N = system: MDA-N
SNB-75 CNS = system: SNB-75 CNS
COLO 205 colon = system: COLO 205 colon
IGROV1 ovarian = system: IGROV1 ovarian
NCI-H522 lung = system: NCI-H522 lung
CCRF-CEM leukemia = system: CCRF-CEM leukemia
SK-MEL-5 melanoma = system: SK-MEL-5 melanoma
SF-295 CNS = system: SF-295 CNS
SR leukemia = system: SR leukemia
ACHN renal = system: ACHN renal
HS 578T breast = system: HS 578T breast
M14 melanoma = system: M14 melanoma
TK-10 renal = system: TK-10 renal
HCC-2998 colon = system: HCC-2998 colon
SF-539 CNS = system: SF-539 CNS
SK-MEL-28 melanoma = system: SK-MEL-28 melanoma
CAKI-1 renal = system: CAKI-1 renal
786-0 renal = system: 786-0 renal
RXF 393 renal = system: RXF 393 renal
NCI-H460 lung = system: NCI-H460 lung
OVCAR-5 ovarian = system: OVCAR-5 ovarian
HCT-116 colon = system: HCT-116 colon
HCT-15 colon = system: HCT-15 colon
OVCAR-3 ovarian = system: OVCAR-3 ovarian
MALME-3M melanoma = system: MALME-3M melanoma
OVCAR-4 ovarian = system: OVCAR-4 ovarian
LOX IMVI melanoma = system: LOX IMVI melanoma
EKVX NSCLC = system: EKVX NSCLC
KM12 colon = system: KM12 colon
PC-3 prostate = system: PC-3 prostate
U251 CNS = system: U251 CNS
SK-MEL-2 melanoma = system: SK-MEL-2 melanoma
MDA-MB-435 = system: MDA-MB-435
T-47D breast = system: T-47D breast
SW-620 colon = system: SW-620 colon
BT-549 breast = system: BT-549 breast
HOP-62 NSCLC = system: HOP-62 NSCLC
RPMI-8226 leukemia = system: RPMI-8226 leukemia
MOLT-4 leukemia = system: MOLT-4 leukemia
A498 renal = system: A498 renal
NCI-H226 lung = system: NCI-H226 lung
SK-OV-3 ovarian = system: SK-OV-3 ovarian
NCI-H23 lung = system: NCI-H23 lung
K-562 leukemia = system: K-562 leukemia
UACC-257 melanoma = system: UACC-257 melanoma
HT29 colon = system: HT29 colon
MDA-MB-231 breast = system: MDA-MB-231 breast
SNB-19 CNS = system: SNB-19 CNS
NCI/ADR-RES ovarian = system: NCI/ADR-RES ovarian
A549 NSCLC = system: A549 NSCLC
UO-31 renal = system: UO-31 renal
OVCAR-8 ovarian = system: OVCAR-8 ovarian
MCF7 breast = system: MCF7 breast
SN12C renal = system: SN12C renal
UACC-62 melanoma = system: UACC-62 melanoma
SF-268 CNS = system: SF-268 CNS
HOP-92 NSCLC = system: HOP-92 NSCLC

For `NC(N)=NNC(=O)C(=O)O`, the TGI (DU-145 prostate) was over 100 µM, the TGI (HL-60(TB) leukemia) was over 100 µM and the TGI (MDA-N) was over 100 µM. The TGI (SNB-75 CNS) was over 100 µM, the TGI (COLO 205 colon) was over 100 µM and the TGI (IGROV1 ovarian) was over 100 µM. For the same molecule, the TGI (NCI-H522 lung) was over 100 µM, the TGI (CCRF-CEM leukemia) was over 100 µM and the TGI (SK-MEL-5 melanoma) was over 100 µM. It also gave a TGI (SF-295 CNS) of over 100 µM, a TGI (SR leukemia) of over 100 µM and a TGI (ACHN renal) of over 100 µM. It also gave a TGI (HS 578T breast) of over 100 µM, a TGI (M14 melanoma) of over 100 µM and a TGI (TK-10 renal) of over 100 µM. The TGI (HCC-2998 colon) was over 100 µM, the TGI (SF-539 CNS) was over 100 µM and the TGI (SK-MEL-28 melanoma) was over 100 µM. For the same molecule, the TGI (CAKI-1 renal) was over 100 µM, the TGI (786-0 renal) was over 100 µM and the TGI (RXF 393 renal) was over 100 µM. For the same molecule, the TGI (NCI-H460 lung) was over 100 µM, the TGI (OVCAR-5 ovarian) was over 100 µM and the TGI (HCT-116 colon) was over 100 µM. It also gave a TGI (HCT-15 colon) of over 100 µM, a TGI (OVCAR-3 ovarian) of over 100 µM and a TGI (MALME-3M melanoma) of over 100 µM. It also gave a TGI (OVCAR-4 ovarian) of over 100 µM, a TGI (LOX IMVI melanoma) of over 100 µM and a TGI (EKVX NSCLC) of over 100 µM. The TGI (KM12 colon) was over 100 µM, the TGI (PC-3 prostate) was over 100 µM and the TGI (U251 CNS) was over 100 µM. The TGI (SK-MEL-2 melanoma) was over 100 µM, the TGI (MDA-MB-435) was over 100 µM and the TGI (T-47D breast) was over 100 µM. It also gave a TGI (SW-620 colon) of over 100 µM, a TGI (BT-549 breast) of over 100 µM and a TGI (HOP-62 NSCLC) of over 100 µM. The TGI (RPMI-8226 leukemia) was over 100 µM, the TGI (MOLT-4 leukemia) was over 100 µM and the TGI (A498 renal) was over 100 µM. It also gave a TGI (NCI-H226 lung) of over 100 µM, a TGI (SK-OV-3 ovarian) of over 100 µM and a TGI (NCI-H23 lung) of over 100 µM. The TGI (K-562 leukemia) was over 100 µM, the TGI (UACC-257 melanoma) was over 100 µM and the TGI (HT29 colon) was over 100 µM. For the same molecule, the TGI (MDA-MB-231 breast) was over 100 µM, the TGI (SNB-19 CNS) was over 100 µM and the TGI (NCI/ADR-RES ovarian) was over 100 µM. The TGI (A549 NSCLC) was over 100 µM, the TGI (UO-31 renal) was over 100 µM and the TGI (OVCAR-8 ovarian) was over 100 µM. The TGI (MCF7 breast) was over 100 µM, the TGI (SN12C renal) was over 100 µM and the TGI (UACC-62 melanoma) was over 100 µM. For the same molecule, the TGI (SF-268 CNS) was over 100 µM.

`O=C(O)C(Cc1ccc(O)c([N+](=O)[O-])c1)N1C(=O)c2ccccc2C1=O` (centres undefined) was tested, and the TGI (DU-145 prostate) was over 100 µM, the TGI (HL-60(TB) leukemia) was 47 µM and the TGI (MDA-N) was over 100 µM. For the same molecule, the TGI (SNB-75 CNS) was over 100 µM, the TGI (COLO 205 colon) was over 100 µM and the TGI (IGROV1 ovarian) was over 100 µM. The TGI (NCI-H522 lung) was over 100 µM, the TGI (CCRF-CEM leukemia) was over 100 µM and the TGI (SK-MEL-5 melanoma) was over 100 µM. The TGI (SF-295 CNS) was over 100 µM, the TGI (SR leukemia) was over 100 µM and the TGI (ACHN renal) was over 100 µM. It also gave a TGI (HS 578T breast) of over 100 µM, a TGI (M14 melanoma) of over 100 µM and a TGI (TK-10 renal) of over 100 µM. It also gave a TGI (SF-539 CNS) of over 100 µM, a TGI (SK-MEL-28 melanoma) of over 100 µM and a TGI (CAKI-1 renal) of over 100 µM. For the same molecule, the TGI (786-0 renal) was over 100 µM, the TGI (RXF 393 renal) was over 100 µM and the TGI (NCI-H460 lung) was over 100 µM. The TGI (OVCAR-5 ovarian) was over 100 µM, the TGI (HCT-116 colon) was over 100 µM and the TGI (HCT-15 colon) was over 100 µM. The TGI (OVCAR-3 ovarian) was over 100 µM, the TGI (MALME-3M melanoma) was over 100 µM and the TGI (OVCAR-4 ovarian) was over 100 µM. It also gave a TGI (LOX IMVI melanoma) of over 100 µM, a TGI (EKVX NSCLC) of over 100 µM and a TGI (KM12 colon) of over 100 µM. The TGI (HOP-92 NSCLC) was over 100 µM, the TGI (PC-3 prostate) was over 100 µM and the TGI (U251 CNS) was over 100 µM. The TGI (SK-MEL-2 melanoma) was over 100 µM, the TGI (MDA-MB-435) was over 100 µM and the TGI (T-47D breast) was over 100 µM. It also gave a TGI (SW-620 colon) of over 100 µM, a TGI (BT-549 breast) of over 100 µM and a TGI (HOP-62 NSCLC) of over 100 µM. It also gave a TGI (RPMI-8226 leukemia) of over 100 µM, a TGI (MOLT-4 leukemia) of over 100 µM and a TGI (A498 renal) of over 100 µM. It also gave a TGI (NCI-H226 lung) of over 100 µM, a TGI (SK-OV-3 ovarian) of over 100 µM and a TGI (NCI-H23 lung) of over 100 µM. The TGI (K-562 leukemia) was over 100 µM, the TGI (UACC-257 melanoma) was over 100 µM and the TGI (HT29 colon) was over 100 µM. It also gave a TGI (MDA-MB-231 breast) of over 100 µM, a TGI (SNB-19 CNS) of over 100 µM and a TGI (NCI/ADR-RES ovarian) of over 100 µM. It also gave a TGI (A549 NSCLC) of over 100 µM, a TGI (UO-31 renal) of over 100 µM and a TGI (OVCAR-8 ovarian) of over 100 µM. The TGI (MCF7 breast) was over 100 µM, the TGI (SN12C renal) was over 100 µM and the TGI (UACC-62 melanoma) was over 100 µM. The TGI (SF-268 CNS) was over 100 µM.

`CN(C)CCNC(=O)c1cccc(CO)c1[N+](=O)[O-]` showed a TGI (DU-145 prostate) of over 100 µM, a TGI (HL-60(TB) leukemia) of over 100 µM and a TGI (MDA-N) of over 100 µM. For the same molecule, the TGI (SNB-75 CNS) was over 100 µM, the TGI (COLO 205 colon) was over 100 µM and the TGI (IGROV1 ovarian) was over 100 µM. The TGI (NCI-H522 lung) was over 100 µM, the TGI (CCRF-CEM leukemia) was over 100 µM and the TGI (SK-MEL-5 melanoma) was over 100 µM. The TGI (SF-295 CNS) was over 100 µM, the TGI (SR leukemia) was over 100 µM and the TGI (ACHN renal) was over 100 µM. For the same molecule, the TGI (HS 578T breast) was over 100 µM, the TGI (M14 melanoma) was over 100 µM and the TGI (TK-10 renal) was over 100 µM. It also gave a TGI (HCC-2998 colon) of over 100 µM, a TGI (SF-539 CNS) of over 100 µM and a TGI (SK-MEL-28 melanoma) of over 100 µM. For the same molecule, the TGI (CAKI-1 renal) was over 100 µM, the TGI (786-0 renal) was over 100 µM and the TGI (NCI-H460 lung) was over 100 µM. For the same molecule, the TGI (OVCAR-5 ovarian) was over 100 µM, the TGI (HCT-116 colon) was over 100 µM and the TGI (HCT-15 colon) was over 100 µM. It also gave a TGI (OVCAR-3 ovarian) of over 100 µM, a TGI (MALME-3M melanoma) of over 100 µM and a TGI (KM12 colon) of over 100 µM. The TGI (PC-3 prostate) was over 100 µM, the TGI (U251 CNS) was over 100 µM and the TGI (SK-MEL-2 melanoma) was over 100 µM. It also gave a TGI (MDA-MB-435) of over 100 µM, a TGI (T-47D breast) of over 100 µM and a TGI (SW-620 colon) of over 100 µM. It also gave a TGI (BT-549 breast) of over 100 µM, a TGI (HOP-62 NSCLC) of over 100 µM and a TGI (MOLT-4 leukemia) of over 100 µM. For the same molecule, the TGI (A498 renal) was over 100 µM, the TGI (NCI-H226 lung) was over 100 µM and the TGI (SK-OV-3 ovarian) was over 100 µM. It also gave a TGI (NCI-H23 lung) of over 100 µM, a TGI (K-562 leukemia) of over 100 µM and a TGI (UACC-257 melanoma) of over 100 µM. It also gave a TGI (HT29 colon) of over 100 µM, a TGI (MDA-MB-231 breast) of over 100 µM and a TGI (SNB-19 CNS) of over 100 µM. It also gave a TGI (NCI/ADR-RES ovarian) of over 100 µM, a TGI (A549 NSCLC) of over 100 µM and a TGI (UO-31 renal) of over 100 µM. The TGI (OVCAR-8 ovarian) was over 100 µM, the TGI (MCF7 breast) was over 100 µM and the TGI (SN12C renal) was over 100 µM. For the same molecule, the TGI (UACC-62 melanoma) was over 100 µM and the TGI (SF-268 CNS) was over 100 µM.
